Entries after “also recorded” stand apart in the source; their conditions may differ.
Assays:
gap junction = conditions: cited from earlier work
Drosophila HD model = test: Early dosing of carbenoxolone in Drosophila HD model (lifespan, motor control); type: in vivo
HD model strain mice [1] = test: Rotarod assay in HD model strain mice; type: in vivo, mouse; conditions: treated from 4 weeks, tested at 8 weeks of age, vs untreated HD mice
From the text: Mouse strains: Mouse strain names provided herein adhere to the Guidelines for Nomenclature of Mouse and Rat Strains, Revised October 2011, International Committee on Standardized Genetic Nomenclature for Mice, accessible at www.informatics.jax.org/mgihome/nomen/strains.shtml. Official gene symbols, or, where appropriate, official mouse strain names of the Jackson Laboratory (www.jax.org, e.g., the Jackson Laboratory Mice Database at jaxmice.jax.org) are used. […]
Rotarod assay: Mice are habituated to balancing on a slowly rotating rotarod (5 rpm). […] The time to fall off the rod, onto a platform located ˜30 cm below the rod, is measured. The increase in latency to fall during the course of training is compared between four groups of mice for each candidate compound to be evaluated (Mutant+candidate, mutant no candidate, wild type+candidate, wild type no candidate). […]
At 8 weeks of age, motor and cognitive performance are tested in rotarod and water maze assays. Untreated mice are expected to show a significant impairment of motor and cognitive capabilities at 8 weeks of age, as measured by a shortened latency to fall in the rotarod assay, and a lengthened latency to escape in the water maze assy, respectively, as compared to wid type control mice.

HD model strain mice [2] = test: Morris water maze assay in HD model strain mice; type: in vivo, mouse; conditions: treated from 4 weeks, tested at 8 weeks of age, vs untreated HD mice
From the text: Mouse strains: Mouse strain names provided herein adhere to the Guidelines for Nomenclature of Mouse and Rat Strains, Revised October 2011, International Committee on Standardized Genetic Nomenclature for Mice, accessible at www.informatics.jax.org/mgihome/nomen/strains.shtml. Official gene symbols, or, where appropriate, official mouse strain names of the Jackson Laboratory (www.jax.org, e.g., the Jackson Laboratory Mice Database at jaxmice.jax.org) are used. There are numerous HD mouse strains suitable for candidate compound or nucleic acid construct screening, and for pre-clinical evaluations of candidates for the treatment of HD such as the HD model strains R6/2, R6/1, N171-82Q, CAG140, HdhQ111, BACHD, and CAG150 (Crook Z R, Housman D (2011) Huntington's disease: can mice lead the way to treatment? Neuron. 69:423-35; the entire contents of which are incorporated herein by reference). The HD model strains differ in their manifestations and time line of HD-like symptoms, e.g., motor and cognitive dysfunctions. […]
Morris water maze assay: The water maze assay measures spatial learning in mice. […] The sixth day has a single-trial probe test without the platform, and the time spent in each quadrant is recorded. […] The navigation of the mice is tracked by video camera, and the escape latency to the platform is recorded. […]

[3] = test system: subject carrying a polyQ tract expansion mutation in the Huntingtin gene; test: Carbenoxolone in pre-symptomatic HD patients; type: in vivo, human; conditions: administered before clinical symptoms manifest, from about 150 mg/day
Experimental: After a period of time sufficient for a change in a cortisol level to manifest, e.g. after about a week, about two weeks, about three weeks, or about a month, the cortisol level in the subject is measured. […] For example, in some embodiments, the dose may be increased from about 150 mg/day to about 300 mg/day. In some embodiments, the cortisol level in the subject is measured again after dose adjustment and, if the cortisol level remains elevated, the dose is increased further. For example, in some embodiments, the dose may be increased from about 300 mg/day to about 450 mg/day. In some embodiments, multiple cycles of dose adjustment and cortisol level measurement are performed until a desired cortisol level is observed in the subject, for example, a blood plasma cortisol level within the range of 70-700 nmol/l or 70-350 nmol/l. For example, in some embodiments, the dose may be increased from about 150 mg/day to about 300 mg/day in a first dose adjustment, then to about 450 mg/day, then to about 500 mg/day, then to about 600 mg/day. […] In some cases, the dosage may be decreased below 150 mg/day, particularly, where a desired reduction in a cortisol level is still observed with lower doses. […]

CC1(C)[C@@H](OC(=O)CCC(=O)O)CC[C@]2(C)[C@H]3C(=O)C=C4[C@@H]5C[C@@](C)(C(=O)O)CC[C@]5(C)CC[C@@]4(C)[C@]3(C)CC[C@@H]12 [Carbenoxolone]
Gap junction activity (gap junction): block gap junction activity | Motor control / chorea (defective motor coordination) (Drosophila HD model; Drosophila HD model): improves motor control; also recorded: improves chorea | Drosophila HD model lifespan (Drosophila HD model; early dosing): extends Drosophila HD model lifespan | Impairment of motor capabilities (latency to fall, rotarod) (HD model strain mice [1]): lesser degree of impairment | Impairment of cognitive capabilities (latency to escape, water maze) (HD model strain mice [2]): lesser degree of impairment | Onset and severity of HD symptoms [3]: prevention or delay of the onset, and/or an amelioration of the severity of at least one HD symptom

Source: patent US20130303562A1, “CHEMICAL AND RNAI SUPPRESSORS OF NEUROTOXICITY IN HUNTINGTON'S DISEASE” (priority 2010, published 2013)
